From PubChem BioAssay AID434951 (Broad Institute, 2010)
Calls of active or inactive are those of the source.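 The calls were made as follows: active = a fitted half-maximal concentration EC50 for the rise in nuclear signal no higher than ten times the top dose tested; inconclusive = flat fit with activity between 30% and 70%, or unusable fit; inactive = EC50 beyond ten times the top dose.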

The compounds below were run against Hypoxia-inducible factor 1-alpha (Homo sapiens) (UniProt Q16665) (assay: activators of HIF1alpha nuclear accumulation, confirmation, imaging, fluorescence, U2OS GFP-HIF1alpha (AID 434951)). Conditions: U2OS GFP-HIF1alpha nuclear intensity, high-content imaging.
Sequence of Hypoxia-inducible factor 1-alpha (Homo sapiens) (Q16665 whole entry, looked up): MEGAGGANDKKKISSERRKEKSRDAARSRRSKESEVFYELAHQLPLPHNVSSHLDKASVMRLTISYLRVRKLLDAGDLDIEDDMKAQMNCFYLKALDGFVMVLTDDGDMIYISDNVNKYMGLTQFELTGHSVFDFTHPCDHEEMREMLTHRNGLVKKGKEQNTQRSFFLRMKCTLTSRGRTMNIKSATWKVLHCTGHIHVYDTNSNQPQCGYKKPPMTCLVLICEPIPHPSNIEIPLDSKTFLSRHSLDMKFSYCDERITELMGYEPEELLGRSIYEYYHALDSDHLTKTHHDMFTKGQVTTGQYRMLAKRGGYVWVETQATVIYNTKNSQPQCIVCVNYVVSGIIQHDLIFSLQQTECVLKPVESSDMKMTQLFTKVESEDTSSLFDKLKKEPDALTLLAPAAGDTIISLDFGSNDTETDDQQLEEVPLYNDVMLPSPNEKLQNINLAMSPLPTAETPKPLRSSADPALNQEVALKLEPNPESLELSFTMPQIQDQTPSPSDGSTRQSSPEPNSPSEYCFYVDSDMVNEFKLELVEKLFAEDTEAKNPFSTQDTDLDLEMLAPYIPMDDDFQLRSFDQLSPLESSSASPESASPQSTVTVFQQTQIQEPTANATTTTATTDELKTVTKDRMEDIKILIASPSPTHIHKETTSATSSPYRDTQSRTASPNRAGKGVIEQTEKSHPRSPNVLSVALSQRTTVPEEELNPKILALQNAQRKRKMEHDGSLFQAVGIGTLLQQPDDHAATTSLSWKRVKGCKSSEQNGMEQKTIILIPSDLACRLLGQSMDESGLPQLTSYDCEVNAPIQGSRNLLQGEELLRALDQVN
Work on `Oc1ccccc1/C=N/Nc1ncc(Br)cn1` yielded an EC50 of 13.4 µM. In the case of `CCN(CC)CCn1nc2c3c(cccc3c1=O)-c1ccccc1-2`, the EC50 is reported as > 35 µM (inactive). For `O=C(c1ccc(-c2nnc(-c3ccccc3)o2)cc1)N1CCCCCC1`, the EC50 was > 35 µM (inactive). For `COc1cc(NC(=O)CN2C(=O)c3ccccc3Sc3ccc(C(=O)N4CCOCC4)cc32)cc(OC)c1OC`, the EC50 was > 35 µM (inactive). With `O=C(Nc1ncc2c(n1)CC(c1ccco1)CC2=O)c1ccccc1` (stereo not given) the EC50 was > 35 µM (inactive). With `CCOP(=O)(C#CC(C)(C)C)C1(O)CCCCC1` (stereo not given) the EC50 was > 35 µM (inactive). For `Oc1ccc(-c2cn3ccccc3n2)cc1O`, the EC50 was > 35 µM (inactive). Work on `Cc1occc1C(=O)N/N=C/c1c(O)ccc2ccccc12` yielded an EC50 of 11.7 µM. In the case of `Cc1ccc(C)c(S(=O)(=O)N2CCN(Cc3ccc(O)c4ncccc34)CC2)c1`, the EC50 is reported as 6.84 µM. In the case of `Oc1c(C=C2N=c3ccccc3=N2)sc(=S)n1-c1ccccc1`, the EC50 is reported as > 35 µM (inactive). In the case of `CCOC(=O)CN(C(=O)COc1nc(C)cc(C)c1C#N)c1cccc(Cl)c1`, the EC50 is reported as > 35 µM (inactive). In the case of `Cc1cccc2[nH]c(CN(C)C(=O)C3CCC(=O)N(C4CC4)C3)nc12` (stereo not given), the EC50 is reported as > 35 µM (inactive). In the case of `O=C(c1cccnc1)c1cc2ccccc2[nH]1`, the EC50 is reported as > 35 µM (inactive). For `CCOC(=O)N1CCN(c2ccc(Cl)c(Cl)c2)CC1`, the EC50 was > 35 µM (inactive). `CCCCOC(=O)c1ccc(NC(=O)C(=O)NCc2cccnc2)cc1` was tested, and the EC50 was > 35 µM (inactive). In the case of `O=[N+]([O-])c1cccnc1N/N=C/c1ccccc1O`, the EC50 is reported as 34.5 µM. In the case of `Cc1ccc(N(C)S(=O)(=O)c2ccc(-c3cc(C)no3)s2)cc1`, the EC50 is reported as > 35 µM (inactive). For `NC(=O)CSc1nnc2ccc(-c3ccc(Cl)cc3)nn12`, the EC50 was > 35 µM (inactive). With `CCSc1cc(C)nc2c(-c3ccccc3)cnn12` the EC50 was > 35 µM (inactive). With `CN(CC(=O)Nc1ccc(F)c(F)c1F)C(=O)/C=C/c1ccc(Cl)cc1` the EC50 was > 35 µM (inactive). `Oc1ccc(CN2CCN(Cc3ccccc3)CC2)c2cccnc12` was tested, and the EC50 was > 35 µM (inactive). `Cc1ccc(-c2nc3ccccc3nc2NN)cc1` was tested, and the EC50 was > 35 µM (inactive). `O=C(NCCCN1CCOCC1)c1cc(-c2ccccc2)on1` was tested, and the EC50 was 9.39 µM. `c1ccc(Cc2nnc(-c3ccccc3)o2)cc1` gave an EC50 of 17.7 µM. `O=C(CSC1=NNC(c2ccccn2)S1)Nc1ccc(C(F)(F)F)cc1` (stereo not given) gave an EC50 of 10.4 µM. For `COCCN=c1scc(-c2cc(OC)c(OC)c(OC)c2)n1/N=C/c1c(C)[nH]c2ccccc12`, the EC50 was > 35 µM (inactive). In the case of `C=CCN1C(=O)c2ccccc2Sc2ccc(C(=O)N3CCN(C)CC3)cc21`, the EC50 is reported as > 35 µM (inactive). For `CCN(C(=O)CSc1ncn[nH]1)C1CCCCC1`, the EC50 was > 35 µM (inactive). With `CCOC(=O)c1cnc(-n2nc(C)cc2C)nc1NNc1nc(-c2ccccc2)cc(-c2ccccc2)n1` the EC50 was 1.81 µM. For `COc1ccc(N/C=C\C(=O)c2ccc3c(c2)OCO3)cc1`, the EC50 was > 35 µM (inactive). In the case of `Cc1ccc(-c2cc(C(=O)N3CCCCCC3)no2)cc1`, the EC50 is reported as > 35 µM (inactive). In the case of `COc1ccc(C/C(C)=N/NS(=O)(=O)c2ccc(Br)cc2)cc1`, the EC50 is reported as > 35 µM (inactive). For `C/C(=N\Nc1ccc2nncn2n1)c1ccccn1`, the EC50 was 3.84 µM. In the case of `Cc1cccc(OCCn2cccc2/C=C2/C(=O)NC(=O)N(Cc3ccco3)C2=O)c1`, the EC50 is reported as > 35 µM (inactive). In the case of `COc1ccccc1CCNS(=O)(=O)c1cc2c3c(c1)C(C)C(=O)N3CCC2` (stereo not given), the EC50 is reported as > 35 µM (inactive). `O=C(c1ccc(F)cc1)N(Cc1cccs1)C1CCS(=O)(=O)C1` (stereo not given) was tested, and the EC50 was > 35 µM (inactive). `CC/C(=N\N1CCCCCC1)c1c(O)n(-c2ccc(C)cc2)c(=O)[nH]c1=O` was tested, and the EC50 was > 35 µM (inactive). `CCOc1ccc(NC(=O)CSc2nnc(Cn3cnc4ccccc43)n2C)cc1` was tested, and the EC50 was > 35 µM (inactive). With `Cc1ccc(Nc2c(-c3ccccn3)nc3cc(C)ccn23)cc1` the EC50 was 5.51 µM. `CC12CC3(C)CC(C)(C1)CC(C(=O)NCCc1ccc(S(N)(=O)=O)cc1)(C2)C3` was tested, and the EC50 was > 35 µM (inactive). With `COc1ccc(C(=O)Nc2ccc(C(=O)NCCc3ccc(OC)c(OC)c3)cc2)cc1` the EC50 was > 35 µM (inactive). In the case of `Cn1ncc(Br)c1C(=O)OCC(=O)Nc1nc(-c2ccccc2)cs1`, the EC50 is reported as > 35 µM (inactive). For `C(=N\Nc1nc2ccccc2[nH]1)/c1cccc2cccnc12`, the EC50 was 12 µM. For `COc1cc2ccccc2cc1C(=O)Nc1ccc(C)cc1`, the EC50 was > 35 µM (inactive). With `COc1ccc(/C=N/NC(=O)c2ccccc2O)cc1CSc1ccccn1` the EC50 was > 35 µM (inactive). `OCc1ccc(N=Nc2ccccc2)cc1` was tested, and the EC50 was > 35 µM (inactive). `c1ccc(-c2nnc(-c3ccccn3)nc2NC2CCCCC2)cc1` showed an EC50 of 6.78 µM. For `CN(Cc1ccccc1)C(=O)CC(=O)N(C)Cc1ccccc1`, the EC50 was > 35 µM (inactive). `Cc1ccc(-c2cc(C(=O)Nc3cccnc3)[nH]n2)c(O)c1C` was tested, and the EC50 was > 35 µM (inactive). `COc1ccc(NC(=O)CSc2ncnc3[nH]ncc23)cc1` was tested, and the EC50 was > 35 µM (inactive). `Cn1cc(CC(=O)N2CCN(c3ccc(Cl)cc3)CC2)c2ccccc21` was tested, and the EC50 was > 35 µM (inactive). With `Cc1ccc(CNc2ccc3c(c2)nc(C)n3C)cc1` the EC50 was > 35 µM (inactive). With `Cn1cc(CN2CCC(C(=O)Nc3cccc(-c4cscn4)c3)CC2)cn1` the EC50 was > 35 µM (inactive). In the case of `CCC/C(O)=C1\C(=O)CC(C)(C)CC1=NCc1ccccc1`, the EC50 is reported as > 35 µM (inactive). `CCc1cnccc1CCC(=O)Nc1ccccc1C` was tested, and the EC50 was > 35 µM (inactive). `CCOC(=O)C(NC(C)=O)(N1CCOCC1)C(F)(F)F` (stereo not given) was tested, and the EC50 was > 35 µM (inactive). For `Nc1ccc(C(=O)Nc2ccc3nc(-c4ccncc4)[nH]c3c2)cc1`, the EC50 was > 35 µM (inactive). In the case of `C/C(=N\Nc1nc2ccccc2[nH]1)c1ccccn1`, the EC50 is reported as 1.8 µM. With `Cc1ccc(C)c(OCC(=O)O/N=C(\N)c2cccc([N+](=O)[O-])c2)c1` the EC50 was > 35 µM (inactive). With `Cc1cc(OC(C)C(=O)NNC(=O)Nc2ccc(F)cc2F)cc(C)c1Cl` (stereo not given) the EC50 was > 35 µM (inactive). `CCCc1nc2ccccc2c(=O)n1/N=C/c1ccccc1O` was tested, and the EC50 was > 35 µM (inactive). With `CCN1CCN(c2ccc([N+](=O)[O-])cc2C=C2C(=O)NC(=O)NC2=O)CC1` the EC50 was > 35 µM (inactive). For `COc1cccc(NC(=S)N(CCCN2CCOCC2)Cc2cn(C)c3ccccc23)c1`, the EC50 was > 35 µM (inactive). With `Cc1ccc2nc(SCC(=O)N3CCCCCC3)nc(=O)n2c1` the EC50 was > 35 µM (inactive). Compound `CCCc1sc(N/N=C/c2ccccn2)nc1-c1ccc(F)cc1` has an EC50 of 6.01 µM. `COC(=O)Nc1ccc(S(=O)(=O)N(C)C)cc1` was tested, and the EC50 was > 35 µM (inactive). `COc1ccc(CCNC(=O)c2cc(-c3cccs3)on2)cc1OC` gave an EC50 of 7.39 µM. In the case of `CCOc1nc(NCCN2CCOCC2)nc(Nc2ccc(C)cc2)n1`, the EC50 is reported as > 35 µM (inactive). With `COc1ccc(CC(NC(C)=O)C(=O)NC2CCN(C(=O)c3cccc(Cl)c3)CC2)cc1OC` (stereo not given) the EC50 was > 35 µM (inactive). Compound `CCCCC(=O)NC(c1ccc(Cl)cc1)c1ccc2cccnc2c1O` (stereo not given) has an EC50 of 1.66 µM. With `COc1ccc(CCNc2nncc(=O)[nH]2)cc1OC` the EC50 was > 35 µM (inactive). In the case of `Cc1ccc(C(=O)Nc2cccc([N+](=O)[O-])c2)cc1S(=O)(=O)Nc1ccc(NC(=O)c2ccccc2)cc1`, the EC50 is reported as > 35 µM (inactive). `O=C(CN(Cc1ccc(F)cc1)C(=O)CCC(=O)Nc1nccs1)NCC1CCCO1` (stereo not given) was tested, and the EC50 was > 35 µM (inactive). For `O=C(C1=C[C@@H](C2CC2)C[C@@H](OCCCCO)O1)N1CCN(Cc2ccc3c(c2)OCO3)CC1`, the EC50 was > 35 µM (inactive). With `O=C(N/N=C/c1ccccn1)c1ccc(Cl)cc1` the EC50 was 12.8 µM.
